Values of other authors in patent US20060099249A1, “Modified release formulations of at least one form of tramadol” (priority 2002, published 2006).
Where two headings read alike, the source gives them in different places.

Tests used:
osteoarthritis [1] = conditions: rofecoxib 12.5 mg
osteoarthritis [2] = conditions: 12 weeks, celecoxib 100 mg BID, Naproxen 500 mg BID
[3] = Study No. 033, Ibuprofen 2400 mg, over 6-weeks
[4] = Study No. 040, Ibuprofen 2400 mg, over 6-weeks
[5] = Study No. 058, Nabumetone 1500 mg, over 6-weeks

Row | SMILES | WOMAC pain walking on a flat surface, mean difference vs placebo (osteoarthritis [1]; [3]) [mm] | WOMAC pain walking on a flat surface, mean difference vs placebo (osteoarthritis [1]; [4]) [mm] | WOMAC pain walking on a flat surface, mean difference vs placebo (osteoarthritis [1]; [5]) [mm] | Arthritis Pain VAS change from baseline, LS mean difference vs placebo (osteoarthritis [2]; Study No. 020) [mm] | Arthritis Pain VAS change from baseline, LS mean difference vs placebo (osteoarthritis [2]; Study No. 054) [mm] | WOMAC pain walking on a flat surface, mean difference vs placebo (osteoarthritis [1]; Study No. 029, LS mean change from baseline over 6-weeks) [mm]
1 | CC(C)Cc1ccc(C(C)C(=O)O)cc1 (stereo not drawn) [Ibuprofen] | 13.5 | 14.6 |  |  |  | 
2 | COc1ccc2cc(CCC(C)=O)ccc2c1 [Nabumetone] |  |  | 10 |  |  | 
3 | COc1ccc2cc([C@H](C)C(=O)O)ccc2c1 [Naproxen] |  |  |  | 7.6 | 11.2 | 
4 | CS(=O)(=O)c1ccc(C2=C(c3ccccc3)C(=O)OC2)cc1 [rofecoxib, Rofecoxib] | 12.4 | 15.4 | 9.0 |  |  | 14.3
